Columns and labels:
[1] = euglycemic glucose clamp study (Glucose Infusion Rate) after insulin pump bolus, with and without heating device; assay type: in vivo, human; conditions: FIG. 26a; for time to peak action (GIR): insulin bolus 0.15 U/kg by pump
From the text: The infusion set includes a tube 44 and a catheter 47, which is inserted into the subcutaneous tissue. […] The controller unit has a switch/button 48 for manual operation and two indicators 49 for “treatment is on” and for battery status. The two components are connected by wires 43.
The controller monitors the electromagnetic emission from the pump. During a bolus mode, the pump emits a well defined series of electromagnetic pulses at constant rate, shown as arrows 42. […] The temperature of the heater is controlled by the controller using a temperature sensor 45 located on the heating element.
The flat heating element used in this example has several layers. The upper layer is a polyethylene layer which seals the element. Below that layer, there is an etched circuit, below which there is a copper layer for heat distribution and mechanical support. Below that layer, there is another sealing polyethylene layer, below which there is an adhesive tape from 3M® which is bio-compatible. The heater has a thickness of less than 0.2 mm and his diameter is 3 cm. Thin electric wires of length of 60 cm with small connectors at both ends connected the heater to the controller unit. The power used for the heating can be 2 Watts. The heating was turned on and off by the controller to stabilize the skin temperature at 39° C. The heat duration was set to 30 minutes, after which the temperature regulation was stopped.
The subject lied down in supine position.
The above described procedure was performed in the same subjects under the same conditions with and without using the heating device. The two graphs show the GIR in glucose milligrams per minutes per subject's kg vs. time. […] There are many attempts to compose such an “artificial pancreas” since the development of continuous glucose monitors. […] Thus, another use of the methods and devices by the present invention is to combine them with a glucose sensor, insulin delivery device and a control algorithm to provide a better accuracy and robustness of a closed loop glucose level control system.

[2] = temperature to which the insulin can be exposed (insulin infused tissue region); cited from earlier work

insulin
time to peak action (GIR) ([1]; with heating (skin 39° C., 30 minutes), same subject): 50 min
GIR decrease (indication for insulin clearance out of the circulation and cessation of systemic effects) ([1]; with heating compared to without heating, same subject): much faster
time to peak action (GIR) ([1]; without heating, typical result in one diabetic subject): 75 min

Insulin aspart [Novolog]
maximal limiting temperature [2]: 37 °C

Reference: patent publication US8622991B2, “Method and device for drug delivery” (Insuline Medical Ltd., priority 2007, dated 2014)
